# From patent US20030171379A1, “Methods of treating, preventing, or inhibiting inflammation with Mactanamide compounds” (priority 2001, published 2003)
# Tests used:
# [1] = test system: PMA-induced inflammation (edema) of the mouse ear; assay: Inhibition of mouse ear edema (PMA mouse ear model); format: in vivo; settings: topical in acetone, 25 ug/ear Mactanamide with 2 ug/ear PMA, 3 hours 20 minutes, left ear weight minus right ear (acetone) weight
# Protocol: The efficacy of Mactanamide compounds as an anti-inflammatory agent was established by the following assay. Mactanamide was topically applied in acetone to the inside pinnae of the ears of mice in a solution comprising an edema-causing irritant, phorbol 12-myristate 13-acetate (PMA). Specifically, 2 μg/ear of PMA alone or in combination with 25 μg/ear of Mactanamide was applied to the left ears (5 mice per treatment group) and acetone was applied to all right ears. After 3 hours, 20 minutes incubation, the mice were sacrificed, the ears removed and bores taken and weighed. Edema was measured by subtracting the weight of the right ear (acetone control) from the weight of the left ear (treated). Results were recorded as % decrease (inhibition) or % increase (potentiation) in edema relative to the PMA control group edema.
# [2] = test system: RTX-induced inflammation (edema) of the mouse ear; assay: Resiniferatoxin (RTX) assay, mouse ear edema; format: in vivo; settings: topical in acetone, 50 ug/ear Mactanamide with 0.1 ug RTX per ear, 30 minutes, left ear weight minus right ear (acetone) weight
# Protocol: A control, acetone, was applied to all right ears. After a 30 minute incubation, the mice were sacrificed, the ears removed, and bores taken and weighed.
# Edema was measured by subtracting the weight of the right ear (control) from the weight of the left ear. The results were recorded as % decrease (inhibition) or % increase (potentiation) in edema relative to the control group edema.
compound,measurement,setting,value
CN1C(=O)C(Cc2c(O)cccc2O)NC(=O)C1Cc1ccccc1 (centres unmarked) [Mactanamide],Edema (mg ± SEM),[1],2.6 ± 1.1 mg
same,Edema (mg ± SEM),[2],0.9 ± 0.5 mg
